This passage reports IC50 and Activity results from ChEMBL document CHEMBL1149208, “Synthesis of 1alpha,25-dihydroxyvitamin D3-26,23-lactams (DLAMs), a novel series of 1 alpha,25-dihydroxyvitamin D3 antagonist” (Bioorg Med Chem Lett, 2004).

pIC50: −log10 of the molar value.

The target in one test is T1, Vitamin D3 receptor (Gallus gallus, UniProt O42392).
T1 sequence (O42392 whole entry): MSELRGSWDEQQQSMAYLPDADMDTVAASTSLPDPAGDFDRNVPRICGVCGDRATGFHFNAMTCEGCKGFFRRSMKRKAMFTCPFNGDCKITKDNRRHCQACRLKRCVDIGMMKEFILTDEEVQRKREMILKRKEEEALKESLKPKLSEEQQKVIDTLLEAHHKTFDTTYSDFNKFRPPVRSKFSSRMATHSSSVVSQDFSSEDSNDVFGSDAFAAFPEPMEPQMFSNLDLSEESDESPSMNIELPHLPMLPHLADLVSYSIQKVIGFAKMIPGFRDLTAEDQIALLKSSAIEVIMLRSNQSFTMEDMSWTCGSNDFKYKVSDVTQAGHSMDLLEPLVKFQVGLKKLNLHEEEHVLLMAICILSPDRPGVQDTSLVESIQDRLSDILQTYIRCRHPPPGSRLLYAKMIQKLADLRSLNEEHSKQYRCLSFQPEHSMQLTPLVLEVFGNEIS
Briefly: In vitro relative binding affinity for chick intestinal vitamin D3 receptor compared to [3H]1.

The test system of the next test is HL-60. Briefly: Inhibitory activity on HL-60 cell differentiation induced by 10e-8 M of compound 1 (1,25-D3). Set-up: scale not given: the % may be the effect or the level left.

By pIC50 is commonly meant the IC50 on a negative log10 scale, so that one unit is a factor of ten. Regarding `C=C1/C(=C/C=C2/CCC[C@]3(C)[C@@H]([C@H](C)C[C@@H]4C[C@@](C)(O)C(=O)N4C)CC[C@@H]23)C[C@@H](O)C[C@@H]1O`, at Vitamin D3 receptor, the pIC50 is 7.30.

In the case of `C=C1/C(=C/C=C2/CCC[C@]3(C)[C@@H]([C@H](C)C[C@@H]4C[C@](C)(O)C(=O)N4C)CC[C@@H]23)C[C@@H](O)C[C@@H]1O` (stereo in doubt; form 2), on Vitamin D3 receptor, the pIC50 was below 7.00.

Turning to `C=C1/C(=C/C=C2/CCC[C@@]3(C)C2CCC3[C@H](C)C[C@@H]2C[C@@](C)(O)C(=O)N2Cc2ccccc2)C[C@@H](O)C[C@@H]1O` (stereo partly drawn), on Vitamin D3 receptor, the pIC50 is 7.52.

The compound `C=C1/C(=C/C=C2/CCC[C@]3(C)[C@@H]([C@H](C)C[C@@H]4C[C@](C)(O)C(=O)N4C)CC[C@@H]23)C[C@@H](O)C[C@@H]1O` (stereo in doubt; form 1) gave a pIC50 on Vitamin D3 receptor below 7.00.

Consider `C=C1/C(=C/C=C2/CCC[C@@]3(C)C2CCC3[C@H](C)C[C@H]2C[C@](C)(O)C(=O)N2C)C[C@@H](O)C[C@@H]1O` (stereo partly drawn), for which, on Vitamin D3 receptor, the pIC50 is 7.99. Further, the Activity in the test on HL-60 came to 12%.

As for `C=C1/C(=C/C=C2/CCC[C@@]3(C)C2CCC3[C@H](C)C[C@H]2C[C@](C)(O)C(=O)N2Cc2ccccc2)C[C@@H](O)C[C@@H]1O` (stereo partly drawn), at Vitamin D3 receptor, the pIC50 was 8.72. The Activity with HL-60 stood at 47%.
